Data reported in the OPERA property sets (Mansouri et al. 2018).

SMILES | boiling point [°C] | melting point [°C] | other results
COP(=O)(OC)OC=C(Cl)Cl | 234 | -60 | log10 Koc (L/kg): 1.67; log10 vapour pressure (mmHg): -1.8; ready biodegradability: readily biodegradable; log10 BCF (fish): -0.3
Cc1ccc(N)c(S(=O)(=O)O)c1 | – | – | ready biodegradability: not readily biodegradable; log10 BCF (fish): 0.6
CNC(=O)c1cccnc1 | – | 104 | –
CC(C)[C@@H](C)/C=C/[C@@H](C)[C@H]1CC[C@H]2C3=CC=C4C[C@@H](O)CC[C@]4(C)C3=CC[C@]12C | – | 146 | –
O=c1[nH]c(=O)n([C@H]2C[C@H](O)[C@@H](CO)O2)cc1Br | – | 192 | –
CCCOP(=O)(OCCC)OCCC | 252 | – | log10 Henry constant (atm·m³/mol): -6.17
CN1C(=O)CN=C(c2ccccc2F)c2cc(Cl)ccc21 | – | 296 | –
CC(C)(OC1CCCCC1)C(=O)O | – | 75 | –
CCCCCS(=O)(=O)O | – | 15.9 | –
O=S(=O)(O)c1ccc(-c2ccc(S(=O)(=O)O)cc2)cc1 | – | 72.5 | –
ClCCCBr | 143 | -58.9 | log10 vapour pressure (mmHg): 0.806; ready biodegradability: not readily biodegradable
CCCCCCCOc1ccc(O)cc1 | – | 61.5 | –
CCOc1ccc(N)cc1 | 254 | 2.4 | log10 vapour pressure (mmHg): -1.98; ready biodegradability: not readily biodegradable; log10 BCF (fish): 1; log10 biotransformation half-life (days) (fish): -1.24
COc1cccc(N)c1 | 251 | -1 | log10 vapour pressure (mmHg): -1.12; ready biodegradability: not readily biodegradable
CC(C)(C)c1ccc(N)cc1 | 241 | 17 | –
BrC1Cc2ccccc2C1Br (centres undefined) | – | 32 | –
CCCCCCC(=O)OCC(C)C | 208 | – | –
CCc1oc2ccccc2c1C(=O)c1ccc(O)cc1 | – | 124 | –
N#Cc1ccc(Cl)c([N+](=O)[O-])c1 | – | 99 | –
O=C1C(=O)c2ccccc2-c2ccccc21 | 360 | 209 | –
COc1ccc(NS(=O)(=O)c2ccc(N)cc2)nn1 | – | 182 | –
CCCN(CCC)c1c([N+](=O)[O-])cc(C(C)C)cc1[N+](=O)[O-] | – | – | log10 Koc (L/kg): 4; log10 vapour pressure (mmHg): -4.52

SMILES | boiling point [°C] | melting point [°C] | other results
CCc1ncc(C)cc1C | 198 | – | –
CC(C)=CCC(C)C | 112 | – | log10 vapour pressure (mmHg): 1.4
C=CC(C)(C)CCC | 104 | – | –
CC(=O)Oc1ccc(C(=C2CCCCC2)c2ccc(OC(C)=O)cc2)cc1 | – | 136 | –
C=C(C)C=C(C)C | 93.2 | -114 | –
NC(=O)c1ccccc1O | – | 142 | –
CCCC(C)CBr (centres undefined) | 141 | – | –
Cc1cc(NC(N)=O)ccc1F | – | – | log10 Koc (L/kg): 1.75
CCCCCCC1CCCC1 | 203 | -73 | –
CCCCCCCCCCCCCCCCCCOO | – | 49.5 | –
CC(C)(C)NCC(O)c1ccc(O)c(CO)c1 (centres undefined) | – | 151 | –
Cc1ccc(Cl)c(O)c1Cl | 237 | 28 | –
ClC(Cl)C(Cl)(Cl)C(Cl)(Cl)Cl | 248 | 29.4 | –
c1ccc(Nc2ccc(-c3ccc(Nc4ccccc4)cc3)cc2)cc1 | – | 247 | –
CC1CCCCC1=O (centres undefined) | 162 | – | log10 vapour pressure (mmHg): 0.352
COc1c(C(C)(C)C)cc([N+](=O)[O-])c(C)c1[N+](=O)[O-] | – | 85 | –
CCOP(=S)(OCC)Oc1nc(Cl)n(C(C)C)n1 | – | – | log10 Koc (L/kg): 2.01; log10 vapour pressure (mmHg): -4.06
O=C(O)c1cccc(C(=O)O)c1 | – | 347 | ready biodegradability: readily biodegradable
NC(=O)NCc1ccccc1 | – | 148 | –
CCCCCCCCCCCCCCCCCCCCCCCCCCCCCC | 450 | 65.8 | log10 biodegradation half-life (days): 2.24; log10 vapour pressure (mmHg): -10.6; ready biodegradability: readily biodegradable
CCCCCCCCNCCCCCCCC | 298 | 35.5 | ready biodegradability: readily biodegradable
Cc1ccc(C[N+](=O)[O-])cc1 | – | 11.5 | –

SMILES | boiling point [°C] | melting point [°C] | other results
Cc1c(C2(c3cc(Br)c(O)c(Br)c3C)OS(=O)(=O)c3ccccc32)cc(Br)c(O)c1Br | – | 218 | –
CCCCNC(N)=O | – | 97 | –
CC(C)c1ccccc1-c1ccccc1 | – | – | log10 vapour pressure (mmHg): -3.3
COP(=O)(NC(C)=O)SC (centres undefined) | – | 88 | log10 Koc (L/kg): 0.3; log10 vapour pressure (mmHg): -5.77; ready biodegradability: readily biodegradable
O=C(O)COc1ccc(Cl)cc1 | – | 164 | –
Cc1cccc2cccnc12 | 248 | -80 | log10 vapour pressure (mmHg): -1.6
CCCC1CCCC(C)C1 (centres undefined) | 164 | – | –
CCOC(=O)C(=O)Nc1ccccc1 | 280 | 65.5 | –
O=C(CCl)c1cccc([N+](=O)[O-])c1 | – | – | log10 vapour pressure (mmHg): -5.06
CCC(=O)C(=O)O | – | 33 | –
Cc1cccc2c1CCCC2C (centres undefined) | 239 | – | –
O=S1(=O)CCOCC1 | – | 132 | –
CC(C)COCC(C)C | 123 | – | log10 Koa: 3.4; log10 vapour pressure (mmHg): 1.19
Brc1ccccc1Br | 225 | 7.1 | –
O=C(O)c1c[nH]c2ccccc12 | – | 206 | –
CC(=O)Nc1cccc(O)c1 | – | 147 | –
O=C1NC(=O)c2c(Cl)c(Cl)c(Cl)c(Cl)c21 | – | – | ready biodegradability: not readily biodegradable
C[C@@H]1CC[C@H](C)c2ccccc21 | 226 | – | –
CCC(CC)c1ccncc1 | 217 | 126 | –
CCOC(CC)OCC | 123 | – | –
Clc1ccc(Cl)c(-c2cc(Cl)ccc2Cl)c1 | – | – | log10 Henry constant (atm·m³/mol): -3.7; log10 Koa: 8.47; log10 Koc (L/kg): 5.12; ready biodegradability: not readily biodegradable; log10 BCF (fish): 4.26
